Consider twelve compounds from patent US9242972B2, “Compounds” (Glaxo Group Limited, priority 2012, dated 2016).

Where only a bound is given, the exact number is not on record here.

In assay [1] the test system is IL-17A secreted from antiCD3/CD28 stimulated Peripheral Blood Mononuclear cells (PBMC). Nature of the assay: Peripheral Blood Mononucleocyte Cell Assay (PBMC Assay - IL-17). The class given is cell-based. As to conditions: inhibition of IL-17A release, human PBMC stimulated with CD3/CD28 beads, 48 hours; read-out: mean pIC50 (converted). As for the experimental part:
Peripheral Blood Mononucleocyte Cell Assay (PBMC Assay—IL-17)
This assay is designed to measure levels of IL-17A secreted from antiCD3/CD28 stimulated frozen Peripheral Blood Mononuclear cells (PBMC) isolated from human blood with the aim of identifying inhibitors of IL-17A release.
2. The compounds for screening are dispensed into a master plate at 10 mM top concentration which are serially diluted 1:3 across 11 points in DMSO, then 500 nl is transferred into a 384-well flat-bottomed Greiner plate to which 50 ul of cell suspension is added: for the single shot screening the highest concentration of compound is 10^−5 M; for 11 point full curve dose response studies the highest concentration is 10^−4 M.
As a low control, DMSO (as supplied, for example, by VWR) (final concentration 1%) in column 6 (16 points).
As a high control, 5-(4-fluorophenyl)-2-ureidothiophene-3-carboxamide (obtainable from, for example, Sigma) at a final concentration of 10^−4 M in DMSO should be used in column 18 (16 points).
9. Make the cell suspension at the concentration 8×10^5 cells/mL. to give a final number of 40,000 cells/well.
1. Add well mixed CD3/CD28 Dynabeads (as supplied, for example, by Dynal) to achieve ratio bead:cell=2:1 (i.e a dilution of 1 in 20). Mix thoroughly.
2. Dispense the suspension into the 384 Assay Plates using Multidrop (50 ul per well). If the volume of cell suspension is large, mix the suspension after dispensing into every other plate.
3. Cover the plates with the lids and place them to the humidified incubator (37° C., 5% CO2) for 48 hours.
1. Block cytokine capture Mesoscale Discovery MSD plates with 0.1% Block buffer B (provided by Mesoscale Discovery) in D-PBS solution using 40 ul per well.
1. Transfer 10 ul of supernatants from assay plates to the MSD plates using Cybiwell. Ensure that all wells are covered with the solution. Tap the plate gently, if some of the wells are not covered with the supernatant.
3. Add 10 ul of MSD IL-17 detecting antibody using multidrop (1 ug/mL in D-PBS without Ca^2+ and Mg^2+ (supplied, for example, by Gibco)).
4. Cover the plates with adhesive foil and incubated with shaking for 3 hours at room temperature
7. Add 35 ul of MSD Read Buffer T×2 using multidrop.
8. Read plates on MSD MA6000 reader using the 384 well plate protocol as per manufacturer's instructions.

Assay [2] concerns the target T1, RORγ ligand binding domain (RORγ-LBD) (Homo sapiens, UniProt P51449).
T1 construct: His6 with thrombin site) (N); made in house; host or cells: E. coli BL21(DE3), modified pET21a vector
T1 sequence (P51449 263-518): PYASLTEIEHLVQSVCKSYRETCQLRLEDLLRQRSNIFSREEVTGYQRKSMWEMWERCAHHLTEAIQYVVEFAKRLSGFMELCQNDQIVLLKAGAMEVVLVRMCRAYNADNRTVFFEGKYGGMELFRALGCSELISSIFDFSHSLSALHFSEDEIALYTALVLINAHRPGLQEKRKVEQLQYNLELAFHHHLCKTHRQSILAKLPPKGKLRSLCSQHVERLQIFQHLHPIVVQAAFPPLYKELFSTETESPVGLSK
The experiment in a line: Dual Fluorescence Energy Transfer (FRET) Assay. Format: biochemical. As to conditions: RORγ-LBD / SRC1(2) co-activator peptide interaction, read-out: mean pIC50 (converted). An excerpt:
Dual Fluorescence Energy Transfer (FRET) Assay
This assay is based on the knowledge that nuclear receptors interact with cofactors (transcription factors) in a ligand dependent manner. RORγ is a typical nuclear receptor in that it has an AF2 domain in the ligand binding domain (LBD) which interacts with co-activators. The sites of interaction have been mapped to the LXXLL (SEQ ID NO:1) motifs in the co-activator SRC 1(2) sequences. Short peptide sequences containing the LXXLL (SEQ ID NO:1) motif mimic the behavior of full-length co-activator.
This assay measures ligand-mediated interaction of the co-activator peptide with the purified bacterial-expressed RORγ ligand binding domain (RORγ-LBD) to indirectly assess ligand binding. RORγ has a basal level of interaction with the co-activator SRC1(2) in the absence of ligand, Thus, it is possible to find ligands that inhibit or enhance the RORγ/SRC1(2) interaction.
Human RORγ Ligand Binding Domain (RORγ-LBD) was expressed in E. coli strain BL21(DE3) as an amino-terminal polyhistidine tagged fusion protein. DNA encoding this recombinant protein was sub-cloned into a modified pET21a expression vector (Novagen). A modified polyhistidine tag ([…]) (SEQ ID NO:2) was fused in frame to residues 263-518 of the human RORγ sequence.
Approximately 50 g E. coli cell pellet was resuspended in 300 mL of lysis buffer (30 mM imidazole pH 7.0 and 150 mM NaCl). Cells were lysed by sonication and cell debris was removed by centrifugation for 30 minutes at 20,000 g at 4° C. The cleared supernatant was filtered through a 0.45 uM cellulose acetate membrane filter. The clarified lysate was loaded onto a column (XK-26) packed with ProBond Nickel Chelating resin (InVitrogen), pre-equilibrated with 30 mM imidazole pH 7.0 and 150 mM NaCl. After washing to baseline absorbance with the equilibration buffer, the column was developed with a gradient from 30 to 500 mM imidazole pH 7.0. Column fractions containing the RORγ-LBD protein were pooled and concentrated to a volume of 5 mLs. The concentrated protein was loaded onto a Superdex 200 column pre-equilibrated with 20 mM Tris-Cl pH 7.2 and 200 mM NaCl. The fractions containing the desired RORγ-LBD protein were pooled together.
Purified RORγ-LBD was buffer exchanged by exhaustive dialysis [3 changes of at least 20 volumes (8000×)] against PBS [100 mM NaPhosphate, pH 8 and 150 mM NaCl]. The concentration of RORγ-LBD was approximately 30 uM in PBS. Five-fold molar excess of NHS-LC-Biotin (Pierce) was added in a minimal volume of PBS. This solution was incubated with occasional gentle mixing for 60 minutes at ambient room temperature. The modified RORγ-LBD was dialyzed against 2 buffer changes—TBS pH 8.0 containing 5 mM DTT, 2 mM EDTA and 2% sucrose—each at least 20 times of the volume. The modified protein was distributed into aliquots, frozen on dry ice and stored at −80° C. The biotinylated RORγ-LBD was subjected to mass spectrometric analysis to reveal the extent of modification by the biotinylation reagent. In general, approximately 95% of the protein had at least a single site of biotinylation and the overall extent of biotinylation followed a normal distribution of multiple sites ranged from one to five.
A biotinylated peptide corresponding to amino acid 676 to 700 ([…]) (SEQ ID NO:3) of the co-activator steroid receptor coactivator SRC1(2) was generated using similar method.
Biotinylated SRC1(2) solution was prepared by adding an appropriate amount of biotinylated SRC1(2) from the 100 uM stock solution to a buffer containing 10 mM of freshly added DTT from solid to give a final concentration of 40 nM. An appropriate amount of Europium labeled Streptavidin was then added to the biotinylated SRC1(2) solution in a tube to give a final concentration of 10 nM. The tube was inverted gently and incubated for 15 minutes at room temperature. […]

`Cc1cc(C(C)C)cnc1N(CC(C)C)S(=O)(=O)c1ccc(OC[C@H]2CCNC[C@H]2F)cc1` (relative stereo) [Example 35, 4-((cis-3-fluoropiperidin-4-yl)methoxy)-N-isobutyl-N-(5-isopropyl-3-methylpyridin-2-yl)benzenesulfonamide]: the IC50 in assay [1] was 1000 nM.

As for `Cc1noc(C)c1COc1ccc(S(=O)(=O)N(CC(C)C)c2ccc(C(C)C)cn2)cc1` [Example 2, 4-((3,5-dimethylisoxazol-4-yl)-methoxy)-N-isobutyl-N-(5-isopropylpyridin-2-yl)benzenesulfonamide], the results for the IC50 in assay [2] and in assay [1] were at most 31.6 nM and 1000 nM, respectively.

Turning to `Cc1noc(C)c1COc1ccc(S(=O)(=O)N(CC(C)C)c2nccc(C(F)(F)F)n2)cc1` [Example 14, 4-{[(3,5-dimethyl-4-isoxazolyl)methyl]oxy}-N-(2-methylpropyl)-N-[4-(trifluoromethyl)-2-pyrimidinyl]benzenesulfonamide], the IC50 in assay [2] is above 10000 nM.

For the compound `Cc1cnc(N(CC(C)C)S(=O)(=O)c2ccc(OCc3c(C)noc3C)cc2)c(C)c1` [Example 15, 4-{[(3,5-dimethyl-4-isoxazolyl)methyl]oxy}-N-(3,5-dimethyl-2-pyridinyl)-N-(2-methylpropyl)benzenesulfonamide], in assay [2], the IC50 is at most 31.6 nM.

On to `CCc1ccc(C)nc1N(CC(C)C)S(=O)(=O)c1ccc(OCc2c(C)noc2C)cc1` [Example 24, 4-((3,5-dimethylisoxazol-4-yl)methoxy)-N-(3-ethyl-6-methylpyridin-2-yl)-N-isobutylbenzenesulfonamide], for which the IC50 was at most 31.6 nM in assay [2] and 1000 nM in assay [1].

As for `Cc1cc(C(C)C)cnc1N(CC(C)C)S(=O)(=O)c1ccc(OCC2CCOCC2)cc1` [Example 31, N-isobutyl-N-(5-isopropyl-3-methylpyridin-2-yl)-4-((tetrahydro-2H-pyran-4-yl)methoxy)benzenesulfonamide], the IC50 in assay [2] was at most 31.6 nM.

With `C=C(C)c1cnc(N(CC(C)C)S(=O)(=O)c2ccc(OCC3CCOCC3)cc2)c(C)c1` [Example 32, N-isobutyl-N-(3-methyl-5-(prop-1-en-2-yl)pyridin-2-yl)-4-((tetrahydro-2H-pyranyl)methoxy)benzenesulfonamide], the IC50 in assay [2] was at most 31.6 nM.

On to `CC(C)CN(c1ccc(C(C)C)cn1)S(=O)(=O)c1ccc(OCC2CCOCC2)cc1` [Example 33, N-isobutyl-N-(5-isopropylpyridin-2-yl)-4-((tetrahydro-2H-pyran-4-yl)methoxy)benzenesulfonamide], for which the IC50 in assay [2] was at most 31.6 nM.

In the case of `Cc1cc(Cl)cnc1N(CC(C)C)S(=O)(=O)c1ccc(OCC2CCOCC2)cc1` [Example 34, N-(5-chloro-3-methylpyridin-2-yl)-N-isobutyl-4-((tetrahydro-2H-pyran-4-yl)methoxy)benzenesulfonamide], the IC50 in assay [2] is at most 31.6 nM.

Consider `CC(C)c1ccc(N(C(C)C(C)C)S(=O)(=O)c2ccc(OCC3CCOCC3)cc2)nc1` (stereo not drawn) [Example 38, N-(5-isopropylpyridin-2-yl)-N-(3-methylbutan-2-yl)-4-((tetrahydro-2H-pyran-4-yl)methoxy)benzenesulfonamide], for which the IC50 in assay [2] is at most 31.6 nM; in assay [1] it was 1000 nM.

Consider `Cc1noc(C)c1COc1ccc(S(=O)(=O)N(CC2CCC2)c2ccc(C(C)C)cn2)cc1` [Example 47, N-(cyclobutylmethyl)-4-((3,5-dimethylisoxazol-4-yl)methoxy)-N-(5-isopropylpyridin-2-yl)benzenesulfonamide], for which, in assay [2], the IC50 is at most 31.6 nM.

As to `CCC(C)CN(c1ccc(C(C)C)cn1)S(=O)(=O)c1ccc(OCc2c(C)noc2C)cc1` (stereo not drawn) [Example 49, 4-((3,5-dimethylisoxazol-4-yl)methoxy)-N-(5-isopropylpyridin-2-yl)-N-(2-methylbutyl)benzenesulfonamide], in assay [2], the IC50 is at most 31.6 nM.
